Test results published in patent US20250345318A1, “COMPOUND AND USE THEREOF IN PREVENTING OR TREATING RADIATION DAMAGE” (SIMCERE PHARMACEUTICAL CO., LTD., priority 2022, published 2025).

Columns and labels:
C57BL/6 male mice [1] = test: Body weight, spleen and thymus indexes and HE staining after total body irradiation (Example 3); format: in vivo
Method: C57BL/6 male mice (24.8±1,6 g in body weight) aged 10 weeks were divided into 4 groups of 8 mice each. After acclimating to the environment, JAC4 (100 mg/kg) or an equal volume of vehicle (polyethylene glycol:ethanol:physiological saline=47.5:7.5:50, v/v/v) was orally administered to the mice once daily for 7 consecutive days. After that, the mice in one JAC4 treatment group and one vehicle group were subjected to total body X-ray irradiation (6 Gy) and JAC4 or vehicle treatment was continued. After 3 days, the administration of JAC4 or vehicle was discontinued, and blood samples, small intestine tissues, and thymus and spleen tissues were collected 4 days later.
HE staining was performed on spleen tissues and thymus tissues from mice in all groups, with procedures as follows:
(1) Section deparaffinization: 1) xylene I treatment for 5 min; 2) xylene II treatment for 5 min; 3) xylene III treatment for 5 min; 4) 100% ethanol treatment for 5 min; 5) 100% ethanol II treatment for 5 min; 6) 95% ethanol treatment for 5 min; 7) 90% ethanol treatment for 5 min; 8) 85% ethanol treatment for 5 min; 9) 70% ethanol treatment for 5 min; 10) 60% ethanol treatment for 5 min.
(2) HE staining: After being rinsed with double-distilled water, the sections were stained with hematoxylin solution for 6 min, differentiated with 0.5% hydrochloric acid in alcohol for a short period, and then placed in double-distilled water for bluing. When the chromatin within the cell nuclei was clearly visible under a microscope, the sections were stained with 0.5% eosin for 30 s.

C57BL/6 male mice [2] = test: Body weight after abdominal X-ray irradiation 12 Gy (Example 9); format: in vivo; conditions: JAC4 100 mg/kg oral + abdominal X-ray 12 Gy
Method: CS7BL/6 male mice aged 10 weeks were divided into 3 groups, i.e., a vehicle control group, a vehicle+radiation group, and a JAC4+radiation group 8 days after radiation, with 6 mice in each group. JAC4 (100 mg/kg) or an equal volume of vehicle (polyethylene glycol:ethanol:physiological saline=47.5:7.5:50, v/v/v) was orally administered to the mice once daily for 7 days. After that, the mice were subjected to abdominal X-ray irradiation (12 Gy) and the JAC4 or vehicle treatment was continued for 4 days. The body weights of the mice before and after […] X-ray irradiation were recorded daily, and body weight curves were plotted.

SPCA-1 cells = test: Subcutaneous SPCA-1 lung cancer xenograft model with X-ray radiation therapy (Example 20); format: in vivo; conditions: for tumor inhibition rate: day 13, vs control group
Method: SPCA-1 cells in the logarithmic growth phase were subcutaneously injected into male BALB/C nude mice aged 4-5 weeks at 5×10^6 cells/100 μL […]. When the tumor volume reached 60-100 mm^3 (tumor volume=length×width^2/2), the mice were randomized into a vehicle control group, a 100 mg/kg JAC4 group (daily treatment), a 3 Gy×5 X-ray radiation group (5 consecutive days of radiation), and a 100 mg/kg JAC4+3 Gy×5 X-ray radiation group, each containing 6 mice. The formulation of the vehicle for JAC4 was polyethylene glycol:ethanol:physiological saline=40:7.5:52.5, v/v/v. The vehicle group and the treatment groups were given the vehicle or the treatment at the same volume by the same route, respectively. The mice were kept anesthetized by isoflurane through a mask in a supine posture. The irradiation range was adjusted to the tumor and the whole lung with a width of about 2 cm through the width indicating lamp and the beam limiting device of the system. The chamber was closed, and the irradiation time was set to about 126 s according to the dose rate to enable the total dose to reach 3 Gy. The irradiator was turned on for the irradiation. 100 mg/kg JAC4 was administered intragastrically daily. The body weight and tumor volume were measured daily and the modeling was terminated on day 13 post-dose.
After the modeling was finished, the tumor tissue was subjected to HE staining according to the following specific procedures: 3 mice were randomly selected to provide the tumor tissue for HE staining in each group, and 6 fields of view were randomly selected for inspection.

BEAS-2B cells [3] = test: γ-H2AX foci and Western blot (DSBs), BEAS-2B (Example 22); format: cell-based, human
Method: To investigate the effect of JAC4 in combination with X-ray on DSBs in SPCA-1 and BEAS-2B cells, SPCA-1 and BEAS-2B cells were pretreated with 10 μM JAC4 for 24 h and 4 Gy X-ray for 2 h, and then subjected to γ-H2AX fluorescent labeling and Western immunoblot (see Example 4 for detailed procedures).

BEAS-2B cells [4] = test: ROS, SOD, CAT and MDA assays, BEAS-2B (Example 22); format: cell-based, human
From the text: The large amount of reactive oxygen species (ROS) induced by X-ray and the sustained oxidative stress reaction may cause DNA damage. Superoxide dismutase (SOD) and catalase (CAT) exert antioxidant effects, and the lipid oxidation product malondialdehyde (MDA) and ROS can reflect the oxidative stress level in vivo. The intracellular ROS level was detected using the fluorescent probe DCFH-DA. […] The supernatant of BEAS-2B cells was extracted and subjected to an MDA assay and an activity assay for CAT and SOD.

[5] = JAC4 100 mg/kg oral + TBI 6 Gy vs vehicle + radiation
[6] = non-radiation, JAC4 100 mg/kg oral

c1ccc(CSc2nnc(C3COc4ccccc4O3)o2)nc1 (stereo not shown) [JAC4]
spleen index (C57BL/6 male mice [1]; JAC4 100 mg/kg oral + TBI 6 Gy): 1.31 ± 0.18 mg/g | thymus index (C57BL/6 male mice [1]; JAC4 100 mg/kg oral + TBI 6 Gy): 1.63 ± 0.24 mg/g | HE staining of spleen tissue after X-ray radiation (C57BL/6 male mice [1]; [5]): no significant difference between the vehicle control group and the JAC4 group | HE staining of thymus tissue after X-ray radiation (C57BL/6 male mice [1]; [5]): no significant difference between the vehicle control group and the JAC4 group | degree of body weight loss (C57BL/6 male mice [1]; JAC4 100 mg/kg oral, TBI 6 Gy): significantly less than that in the control group | spleen index (C57BL/6 male mice [1]; [6]): 3.22 ± 0.26 mg/g | thymus index (C57BL/6 male mice [1]; [6]): 2.51 ± 0.43 mg/g | body weight curve (C57BL/6 male mice [2]): consistently above that of the vehicle+radiation group | tumor inhibition rate (SPCA-1 cells; 100 mg/kg JAC4 + 3 Gy×5 X-ray combination therapy): 78.05% | tumor inhibition rate (SPCA-1 cells; 100 mg/kg JAC4 intragastric daily, monotherapy): 25.45% | tumor volume (SPCA-1 cells; 100 mg/kg JAC4 monotherapy): significantly smaller than the control group | tumor-to-body weight ratio (SPCA-1 cells; JAC4 + X-ray combination vs X-ray monotherapy group): significantly reduced | H&E staining of tumor tissues (SPCA-1 cells; JAC4 in combination with X-ray): promotes the necrosis of tumor tissues | death (SPCA-1 cells; all groups, JAC4 100 mg/kg with or without X-ray): no death occurred | body weight (SPCA-1 cells; among all groups, JAC4 100 mg/kg with or without X-ray): no significant changes | formation of γ-H2AX foci (BEAS-2B cells [3]; 10 μM JAC4 24 h + 4 Gy X-ray 2 h vs X-ray treatment group): significantly reduced | JWA expression level (Western blot) (BEAS-2B cells [3]; 10 μM JAC4 + 4 Gy X-ray): increased | γ-H2AX protein expression level (Western blot) (BEAS-2B cells [3]; 10 μM JAC4 + 4 Gy X-ray): decreased | CAT activity (BEAS-2B cells [4]; JAC4+X-ray group): 3.56±0.02 U/mg | SOD activity (BEAS-2B cells [4]; JAC4+X-ray group): 24.20±1.18 U/mg | oxidation product MDA level (BEAS-2B cells [4]; JAC4+X-ray group): 31.35 ± 4.34 µM/mg | CAT activity (BEAS-2B cells [4]; JAC4 group): 3.42±0.08 U/mg | SOD activity (BEAS-2B cells [4]; JAC4 group): 28.67±1.36 U/mg | oxidation product MDA level (BEAS-2B cells [4]; JAC4 group): 24.95 ± 1.63 µM/mg | ROS level (BEAS-2B cells [4]; JAC4 in combination with X-ray): significantly reduced
